These results are taken from US10369167B2, “Continuously expressed therapeutic RNAs for targeted protein binding and methods for their use” (priority 2016, dated 2019).

Several values for one entry are separate records, joined by “and”; a condition that tells them apart may be missing. Equal entries are not always repeated.

The subject of one data set is HIV-1 Ba-L strain. Put plainly: HIV challenge of stable Ghost3 (Ghost3+CXCR4+CCR5) cells, P24 assay. The format is cell-based. As for the experimental part:
Ghost 3+CXCR4+CCR5 cells, HIV NL4-3 and Ba-L strains were obtained from the NIH AIDS Reagent Program. Ghost cells and HEK293 cells (ATCC CRL-1573) were grown on DMEM supplemented with 10% FBS and 1 mM Glutamine. CCRF-CEM (ATCC CRM-CCL-119) cells were grown in RPMI supplemented with 10% FBS and 1 mM Glutamine. HEK293 and Ghost cells were transfected with Lipofectamine 2000 according to the manufacturer's protocol (ThermoFisher, Waltham, Mass., USA). To generate stable HEK293 cell lines, 2 million cells were transfected with pJR255-based plasmids that express aptamers alone, shLuc, or shLuc-aptamer fusions. Transfected cells were selected with G418 (Gold Biotechnology, St. Louis, Mo., USA) for 10 to 14 days, followed by Fluorescent Activated Cell Sorting (FACS) to isolated mCherry positive cells. Typically, the brightest 10 to 30% of cells were collected. Second FACS was performed 7 to 10 days after the first sort to isolate stable cell populations. […] Ghost cells were already G418 resistant, therefore, no selection step was performed. 0.5M cells were transfected with pJR255 based plasmids that express shLuc, aptamer alone or shLuc-aptamer fusions. Transfected cells were sorted 7 days after transfection. Compared to HEK293 cells, the percentage of mCherry positive cells was much lower because no drug selection was applied. Typically, the brightest 5 to 10% of cells were collected. A second sort was performed 14 days later. If a decrease in mCherry signal was observed, a third sort was performed.
(§1) For the lentivirus challenge, 5×10^4 HEK293 cells stably expressing the aptamer alone, the shRNA alone or the shRNA-aptamer fusions were transduced with HIV7-GFP lentivirus particles at an MOI of 0.3 in 500 μl cell culture medium. Cells were harvested 10 days post-transduction and analyzed by FACS. For an initial HIV challenge, 5×10^4 Ghost(3)X4/R5 cells stably expressing shRNA alone or shRNA-aptamer fusions were infected with HIV-1 Ba-L strain at an MOI of 0.02 in 500 μl medium. The HIV concentration of cells in culture was determined using a P24 assay with an Alliance HIV-1 P24 ELISA kit. (PerkinElmer, Waltham, Mass., USA). For a long term HIV challenge, 1×10^5 CCRF-CEM cells stably expressing shRNA or shRNA-aptamer fusions were infected with HIV-1 NL4-3 viruses at MOI of 0.02 in 500 μl medium. […]
To test if the shRNA-fusions can exert inhibition during subsequent infection cycles using replication competent HIV, stable Ghost3+CXCR4+CCR5 cell lines expressing the shLuc alone and the shLuc-S1R1, shLuc-S3R1 and shLuc-53R3 fusions were generated (abbreviated as Ghost3 cells in following text) (Morner, et al., 1999). […] The HIV concentration in cultures was monitored by P24 assay for 9 days.

A further data set concerns HIV. To be noted: 10% FBS cell culture; cited from earlier work.
Data set [1] deals with T1, HIS tagged HIV-1 Integrase (HIS-IN) (Human immunodeficiency virus type 1 group M subtype B, UniProt P12497, C1427S/F1332K).
T1 construct: HIS tagged HIV-1 Integrase (HIS-IN) expression vector; made in house; host or cells: E. coli strain C3016
The format is binding. The method, then: The gel mobility shift assay was carried out as described (Zhou, et al, 2009). RNA aptamers were transcribed from annealed oligonucleotide pairs (Table 1) containing T7 promoter sequences using Megashortscript T7 transcription kit (Thermofisher Scientific, Waltham, Mass., USA). Percentage binding was determined by Image J (http://imagej.nih.gov/ij/index.html). ^32P labeled and folded aptamers (final concentration of 2 nM) were incubated with HIS-IN protein (final concentration of 0, 20, 40, 80, 160 and 320 nM) at 37° C. for 30 min. The complexes were then separated by 5% native polyacrylamide gel. Autoradiographs were acquired via Typhoon phosphorimaging system (GE Healtcare Life Science, Pittsburgh Pa. 15264, USA). Digital images were imported and analyzed by ImageJ software (http://imagej.nih.gov/ij/index.html). 50 percent binding values were determined by the Prism 6 software (GraphPad Software Inc) using non-linear curve regression. Northern analysis of total or fractionated RNAs was carried out as described (Castanott, et al., 2009) using probes listed in primer list (Table 1). Quantification of relative band intensity was measured and calculated using Image J software.

For the next data set, the system named is HIV7-GFP lentivirus. The data set is described as follows: Single cycle lentivirus HIV7-GFP challenge of stable HEK293 cells, FACS. The format is cell-based, HIV. To be noted: aptamer alone expressed directly from U6 promoter, HEK293, MOI 0.3, FACS 10 days after transduction. From the text: A direct functional assay was used to test the inhibitory effect of the aptamer candidates for combinational gene therapy in T cells or hematopoietic stem cells (HSC). To this end, plasmids (pJR255) consisting of: 1) a U6 promoter for inducing the expression of the aptamers, 2) a G418 resistant cassette for selection, and 3) an mCherry marker for cell purification and functional analysis were generated. (FIG. 11). RNAs expressed from U6 (pol III) promoter lack nucleus export signals and stay in the nucleus (18,19,20,21). Integrase functions primarily in the nucleus. […] Each population of cells was transduced with lentiHIV particles at an MOI of 0.3. The transduced cells were analyzed by FACS 10 days after transduction to minimize the effects of GFP from nonintegrated viral DNA. If an aptamer exerts any inhibition of HIV integrase, the percentage of GFP and mCherry double-positive cells should be reduced compared to the control.
For the lentivirus challenge, 5×10^4 HEK293 cells stably expressing the aptamer alone, the shRNA alone or the shRNA-aptamer fusions were transduced with HIV7-GFP lentivirus particles at an MOI of 0.3 in 500 μl cell culture medium. Cells were harvested 10 days post-transduction and analyzed by FACS. […] The HIV concentration of cells in culture was determined using a P24 assay with an Alliance HIV-1 P24 ELISA kit. […]

In another data set the test system is HIV-1 NL4-3. Put plainly: Long term HIV challenge of stable CCRF-CEM cells, p24 assay. It is filed as cell-based. To be noted: pNL4-3 MOI 0.01, monitored six weeks. The method, then:
To generate stable CCRF-CEM cell lines, 2 million cells were transfected with […]-based plasmids, that express shLuc, shLuc-S1R1, shLuc-S3R1 and shLuc-S3R3, by electroporation using the Nucleofactor kit according to the manufacturer's protocol (Lonza, Basel, Switzerland). G418 selection and FACS were performed similar to that of HEK293 cells.
as §1, with “USA).” for “USA). For a long term HIV challenge, 1×10^5 CCRF-CEM cells stably expressing shRNA or shRNA-aptamer fusions were infected with HIV-1 NL4-3 viruses at MOI of 0.02 in 500 μl medium.”
The long-term efficacy of shRNA-aptamer fusions in CD4 positive T cells was tested using CEM cells stably expressing shLuc, shLuc-S3R3, shS1 or shS1-S3R3. […] HIV concentrations were monitored for six weeks by p24 assay (FIG. 8). […] In summary, anti-integrase aptamer expressed as an shRNA-aptamer fusion can confer long term resistance to HIV-1 replication in T cells. […]

In a further data set the test system is firefly luciferase. The data set is described as follows: Luciferase assay in HEK293 clone stably expressing firefly luciferase. It is filed as cell-based. To be noted: U6 driven shLuc or shLuc-aptamer fusion, Day 2 or Day 3 after transfection. As for the experimental part: A HEK293 cell clone stably expressing firefly luciferase was transfected with the plasmids expressing the shLuc or the shLuc-aptamer fusions. Cells were harvested two or three days post-transfection and their firefly luciferase activities were determined by the Luciferase Assay System (Promega, Madison, Wis., USA).
Using a luciferase assay, export of the shRNA-aptamer fusion into the cytoplasm was tested. […] (FIG. 4B). […] Northern blot analyses on fractionated samples were performed to further assess the distribution and processing of the shLuc-aptamer fusion.

The mark [2] stands for this setting: Human immunodeficiency virus 1, BAL, 216 h, read-out: inhibition of HIV replication.

In the case of `Cc1nnc(C(=O)NC(C)(C)c2nc(C(=O)NCc3ccc(F)cc3)c(O)c(=O)n2C)o1` [Raltegravir, reference compound], in the data set with HIV-1 Ba-L strain (setting [2]), the inhibition at 0.002 µM was 96% and the inhibition at 0.02 µM is > 99%. In addition, in the data set with HIV, the IC50 is 2 nM and the concentration for an effect of 95% (IC95) is listed as 20 nM.
In the case of “S3R3: anti-HIV integrase RNA aptamer; variable region CGTCGTATGCTGCGCCATGGGGTGGACTG (SEQ ID NO:5) (variable region only, further chemistry not given here)”, in data set [1] (2 nM 32P labeled aptamer, HIS-IN 0-320 nM, 37° C. 30 min, read-out: binding affinity to HIS-IN (50 percent binding value)), the Kd amounted to 47 nM. Further, the “binding affinity to HIS-IN compared to S1R1” value in data set [1] (gel shift) was “higher binding affinity”. Also, the “HIV inhibition, in words” value in the data set with HIV-1 Ba-L strain (Ba-L, Ghost3 cells, p24 monitored for 9 days) is given as “weaker than a low dose of Raltegravir”. In addition, in the data set on HIV7-GFP lentivirus, the “inhibition of HIV-7GFP integration” value is given as “did not inhibit”.

B1: shLuc-S3R3: shLuc-aptamer fusion with integrase aptamer S3R3 (SEQ ID NO: 23, 24) (nucleic acid)
DNA 1: CACCGCTTACGCTGAGTACTTCGAAACAAGGAGGACGATGCGGGCCGTCGTATGCTGCGCCATGGGGTGGACTGGGTGGCGCGAAGTTCGAAGTACTCAGCGTAAG
DNA 2: AAAACTTACGCTGAGTACTTCGAACTTCGCGCCACCCAGTCCACCCCATGGCGCAGCATACGACGGCCCGCATCGTCCTCCTTGTTTCGAAGTACTCAGCGTAAGC
modifications: expressed or natural sequence; the letters are possibly those of the target site
For the molecule B1, the “inhibition of HIV replication (relative P24 concentration compared to shLuc control)” value in the data set with HIV-1 Ba-L strain (Ghost3 cells expressing shRNA or shRNA-aptamer fusion, Ba-L MOI 0.02, Day 9) was ~85% and 78%. Also, the “viral concentration (p24) relative to control (shLuc)” value in the data set with HIV-1 NL4-3 is “more than three orders of magnitude lower”.

B2: shLuc: U6 promoter driven shRNA targeting luciferase with an artificial 10 bases loop (nucleic acid)
chain 1: CACCGCTTACGCTGAGTACTTCGAAATTGAAGCTTGTTTCGAAGTACTCAGCGTAAG
chain 2: AAAACTTACGCTGAGTACTTCGAAACAAGCTTCAATTTCGAAGTACTCAGCGTAAGC
modifications: the letters are possibly those of the target site
notes: U6 promoter driven shRNA targeting luciferase with an artificial 10 bases loop
Turning to B2, the “inhibition of luciferase activity” value in the data set with firefly luciferase is on record as “slightly stronger”.

B3: S3R1: anti-HIV integrase RNA aptamer, oligos JRO502/JRO503 (SEQ ID NO: 15, 16) (nucleic acid)
DNA 1: CACCGCGGGCCCTAGACGCGCTGCCGTGGAGGAGGAGGTTGGTGGCGCGAGAGGTG
DNA 2: AAAACACCTCTCGCGCCACCAACCTCCTCCTCCACGGCAGCGCGTCTAGGGCCCGC
modifications: listed as DNA, chemistry not fully specified; the letters are possibly those of the target site
With B3, the “inhibition of HIV-7GFP integration” value in the data set on HIV7-GFP lentivirus is on record as “did not inhibit”.

The term inhibition denotes the relative decrease from the control value, in per cent. By IC50 is commonly meant the concentration that inhibits the measured activity by half. Broadly, the IC95 is the concentration needed for an effect of 95%.
